Test results published in US8048918B2, “Treatment of hyperproliferative diseases” (Vampex Limited, priority 2000, dated 2011).
Where no end group is shown, it is not given here.

Experiments:
[1] = test system: human dermal fibroblast cells; experiment: proliferation assay of human dermal fibroblast cells; assay type: cell-based; conditions: P142 1 mg/ml, peptides 6 μM; 24 hours and 4 days after treatment; FIG. 9
Description: Fibroblast cell culture is performed essentially as described for culture of hyperproliferative psoriatic keratinocytes (Example 3), except that following irrigation with complete culture medium, the dermal portion is incubated with 1 mg/ml of collagenase (Sigma) in 20 ml DMEM in a 50 ml centrifuge tube for 16 hours at 37° C. Then 20 ml DMEM containing 5% foetal calf serum and 1% antibiotic/antimycotic solution (Gibco) is added and the cells seeded at 37° C. in DMEM medium+additions at a density of 2500 cells/cm^2 in a 25 cm^2 cell culture flask. Medium is replaced every 48 hours and cells passaged when confluent.
Fibroblast cell culture and experiments are performed essentially as described for culture of hyperproliferative psoriatic keratinocytes (above), except that following irrigation with complete culture medium, the dermal portion is processed further. Reference is made to fibroblast culture protocols set out above.
Proliferation of cells is assayed by direct cell counting essentially as for determination of proliferation in keratinocyte cell cultures. RDH, ADH, RalDH inhibitors are found to reduce proliferation.

[2] = test system: hyperproliferative psoriatic keratinocytes; experiment: differentiation assay (K1/K10 mRNA, Northern blot / RT-PCR) on hyperproliferative psoriatic keratinocytes; assay type: cell-based, human; conditions: peptides 6 μM, Ca2+ 1.2 mM, RBP 0.6 μM
Description: RNA extraction is carried out according to the manufacturers instructions using the RNeasy kit (QIAGEN). 20 μg of RNA for each treatment was separated on a 1.2% agarose (1.8% formaldehyde) gel and transferred onto a nylon membrane (Zeta probe GT membranes, BioRad) by capillary transfer. The RNA is fixed to the membrane by UV crosslinking. DNA probes for the differentiation markers K1 and K10(50 ng) are labelled with [α-^32P] dCTP using the Prime-It RmT Primer labeling kit (Stratagene) following the manufacturer's instructions. Unincorporated nucleotides are removed by elution through a Microspin G25 column (Pharmacia Biotech). The blots are wetted in 0.25M sodium phosphate (pH 7.2)/7% SDS for 30 minutes at 65° C. Fresh hybridisation solution is added along with the radiolabelled probe and the blot is hybridised overnight at 65° C.
The blot is washed for 2×5 minutes in 0.25M sodium phosphate (pH 7.2), 7% SDS and then for 2×5 minutes in 20 mM sodium phosphate (pH 7.2), 5% SDS at 65° C. The wash steps are repeated until a clear distinction can be made between the signal and non-specific background. The blot is exposed to x-ray film for 24 hours before developing.
Synthesis of mRNA for the K1 and K10 keratin (markers for commitment to terminal differentiation) is examined by quantitative reverse transcription PCR (RT-PCR). Synthesis of mRNA for Cyclin D (a marker for cell proliferation) is also assayed by RT-PCR. Standard protocol for RT-PCR is followed as recommended by the manufacturer of the PCR machine (PE 2400) using 1 μg RNA from each keratinocyte culture. Suitable primers for RT-PCR are designed based on the human sequences of K1 and K10 deposited in GenBank. Northern blots are also performed: cells are harvested, RNA extracted and 20 μg RNA loaded into each well of a formaldehyde/agarose gel. The RNA is blotted onto a nylon membrane by capillary transfer and expression of K1 mRNA is determined by Northern hybridisation with a radiolabelled DNA probe.
Next, hyperproliferative epidermal keratinocytes are obtained, isolated and cultured as described above in Example 3. Hyperproliferative psoriatic keratinocytes are cultured as described above in serum-free medium with or without the addition of […] human retinol binding protein. At confluence the cells are treated (see Table 3 below) for 96 hours with peptides to 6 μM (medium replaced after 48 hours). Treatments shown in the Table 3 are for duplicate T-25 flasks (2×7 ml for each treatment).
The final concentrations are: Ca^2+ 1.2 mM, RBP 0.6 μM, peptides 6 μM.
Expression of K1 and K10 markers is determined as described above in Example 4. […]
Synthesis of mRNA for markers of proliferation and differentiation is also examined by semi-quantitative reverse transcription PCR (RT-PCR). […]

[3] = test system: COS-1 cells; experiment: proliferation assay of COS-1 cells (Coulter counter); assay type: cell-based; conditions: P142 1 mg/ml, peptides 6 μM; 24 and 48 hours after treatment; FIG. 7
Description: […] (COS1 and COS7) are purchased from the European Cell Culture Collection, thawed and propagated according to the instructions from the supplier; cells are cultured essentially in the same manner as for normal human keratinocytes (Example 3 above), except that cells are seeded at 20 000 cells/cm^2, with only one treatment with antibody P142, control immunoglobulin, peptide 589, peptide 592 or control peptide 24 hrs after seeding.
Proliferation is assayed by counting cells in a Coulter counter, as described above.

[4] = target: retinol dehydrogenase; conditions: Boerman and Napoli, Biochemistry 34:7027-37, 1995; cited from earlier work
[5] = target: T1, RalDHI (Rattus norvegicus, UniProt P51647); conditions: Penzes et al. 1997; Chen and Juchau 1997; cited from earlier work
T1 sequence (P51647 1-501): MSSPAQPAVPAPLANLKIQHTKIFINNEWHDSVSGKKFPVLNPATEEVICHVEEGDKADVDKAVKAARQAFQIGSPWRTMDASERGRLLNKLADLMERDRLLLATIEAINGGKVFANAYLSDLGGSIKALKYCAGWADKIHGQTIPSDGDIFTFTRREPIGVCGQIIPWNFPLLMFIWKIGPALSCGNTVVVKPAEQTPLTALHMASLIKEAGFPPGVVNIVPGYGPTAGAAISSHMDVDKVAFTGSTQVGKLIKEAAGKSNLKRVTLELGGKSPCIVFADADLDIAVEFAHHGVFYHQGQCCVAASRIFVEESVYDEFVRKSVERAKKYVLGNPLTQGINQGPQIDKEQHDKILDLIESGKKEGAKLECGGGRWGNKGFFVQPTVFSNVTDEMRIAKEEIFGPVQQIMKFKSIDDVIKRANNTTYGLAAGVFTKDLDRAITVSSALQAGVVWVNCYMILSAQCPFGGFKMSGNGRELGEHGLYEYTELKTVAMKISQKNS

GRVRLLNNWDVCA
fibroblast proliferation (cell numbers) [1]: greater reduction in proliferation
differentiation (expression of K1 and K10 markers) [2]: enhances the expression of K1 and K10 markers
differentiation (expression of K1 and K10 markers) ([2]; listed as peptide 389): reversed
proliferation of Cos-1 cells (cell numbers) [3]: marked reduction in proliferation

CC1(C)[C@@H](OC(=O)CCC(=O)O)CC[C@]2(C)[C@H]3C(=O)C=C4[C@@H]5C[C@@](C)(C(=O)O)CC[C@]5(C)CC[C@@]4(C)[C@]3(C)CC[C@@H]12 [Carbenoxolone]
IC50 [4]: 55 µM

CC(C)=CCCC(C)=CC=O [Citral, 3,7-dimethyl-2,6-octadienal]
IC50 [5]: 1 µM
